Results reported in paper PMC9995905, “Characteristics of antimicrobial peptide OaBac5mini and its bactericidal mechanism against Escherichia coli” (Frontiers in Veterinary Science, 2023).
Converted amounts (≈) assume the structure as drawn.

Tests used:
S. aureus B54 = experiment: microbe, parasite or virus in culture; conditions: for MIC: Staphylococcus aureus, B54, read-out: MIC against S. aureus B54
Excerpt: (§1) The strains of E. coli ATCC 25922 and S. aureus ATCC 25923 were purchased from the American Type Culture Collection (ATCC, Manassas, VA, United States). The strains of E. coli W13, E. coli IF4, E. coli 2, and E. coli 17 were individually isolated from the livers of diseased chickens infected by E. coli. The strains of S. aureus B5, S. aureus B9, S. aureus B54, and S. aureus B63 were individually isolated from the milk of cows with mastitis. These clinical isolates were all identified by the VITEK-32 system (bioMérieux, France) and PCR amplification sequencing.
(§2) MICs of OaBac5mini, amoxicillin, kanamycin, florfenicol and tetracycline were determined using the two-fold broth microdilution method according to the Clinical and Laboratory Standards Institute (CLSI) guidance ([21]). MIC values of the tested antibacterial agents were determined on three independent occasions. Escherichia coli ATCC 25922 was used as the quality control in all the susceptibility tests.

E. coli W13 = experiment: microbe, parasite or virus in culture; conditions: for MIC: Escherichia coli, W13, read-out: MIC against E. coli W13
Excerpt: as §1, §2

E. coli 2 = experiment: microbe, parasite or virus in culture; conditions: for MIC: Escherichia coli, 2, read-out: MIC against E. coli 2
Excerpt: as §1, §2

S. aureus B63 = experiment: microbe, parasite or virus in culture; conditions: for MIC: Staphylococcus aureus, B63, read-out: MIC against S. aureus B63
Excerpt: as §1, §2

S. aureus B9 = experiment: microbe, parasite or virus in culture; conditions: for MIC: Staphylococcus aureus, B9, read-out: MIC against S. aureus B9
Excerpt: as §1, §2

E. coli 17 = experiment: microbe, parasite or virus in culture; conditions: for MIC: Escherichia coli, 17, read-out: MIC against E. coli 17
Excerpt: as §1, §2

E. coli IF4 = experiment: microbe, parasite or virus in culture; conditions: for MIC: Escherichia coli, IF4, read-out: MIC against E. coli IF4
Excerpt: as §1, §2

S. aureus B5 = experiment: microbe, parasite or virus in culture; conditions: for MIC: Staphylococcus aureus, B5, read-out: MIC against S. aureus B5
Excerpt: as §1, §2

E. coli ATCC 25922 = experiment: microbe, parasite or virus in culture; conditions: for MIC: Escherichia coli, ATCC25922, read-out: MIC against E. coli ATCC 25922
Experimental: as §2

S. aureus ATCC 25923 = experiment: microbe, parasite or virus in culture; conditions: for MIC: Staphylococcus aureus, ATCC25923, read-out: MIC against S. aureus ATCC 25923
Experimental: as §2

E. coli ATCC 25922 ΔsbmA = conditions: two-fold broth microdilution, CLSI; three independent occasions; sbmA deletion mutant
Experimental: The method described by Datsenko and Wanner was used for chromosomal gene deletion ([20]). […] The PCR fragment (1,567 bp) was purified, digested with DpnI, repurified and transferred into E. coli ATCC 25922 by electroporation, in which the Red recombinase expression plasmid pKD46 was previously transformed and induced by L-arabinose. Transformants were selected on Luria-Bertani (LB) agar containing 50 μg/ml of kanamycin at 37°C. The inserted sequence was amplified from the kanamycin-resistant strains by using the primers SBMF: 5′-[…]-3′ and SBMR: 5′-[…]-3′ which is located outside of inactivated gene. The length of the PCR product of sbmA using the primers set SBMF and SBMR in E. coli ATCC 25922 is 1,404 bp. When sbmA is successfully inactivated, the PCR product (2,198 bp) was amplified and sequenced for the verification of the gene deletion.
as §2

[1] = two-fold broth microdilution, CLSI, three independent occasions, isolate from milk of cows with mastitis
[2] = two-fold broth microdilution, CLSI, three independent occasions, isolate from diseased chicken liver
[3] = two-fold broth microdilution, CLSI, three independent occasions

| Compound | MIC (S. aureus B54) [µg/mL] | MIC (E. coli W13) [µg/mL] | MIC (E. coli 2) [µg/mL] | MIC (S. aureus B63) [µg/mL] | MIC (S. aureus B9) [µg/mL] | MIC (E. coli 17) [µg/mL] | MIC (E. coli IF4) [µg/mL] | MIC (S. aureus B5) [µg/mL] | MIC (E. coli ATCC 25922) [µg/mL] | MIC (S. aureus ATCC 25923) [µg/mL] | MIC against E. coli ATCC 25922 ΔsbmA (E. coli ATCC 25922 ΔsbmA) [µg/mL] | other results |
| --- | --- | --- | --- | --- | --- | --- | --- | --- | --- | --- | --- | --- |
| CC1(C)S[C@@H]2[C@H](NC(=O)[C@H](N)c3ccc(O)cc3)C(=O)N2[C@H]1C(=O)O [AMO, amoxicillin] | 3.33 (≈ 9.11 µM) | > 640 | > 640 | 2.08 (≈ 5.69 µM) | 3.33 (≈ 9.11 µM) | > 640 | > 640 | 427 (≈ 1170 µM) | 8 (≈ 21.9 µM) | 0.67 (≈ 1.83 µM) | 8 (≈ 21.9 µM) | – |
| CS(=O)(=O)c1ccc([C@@H](O)[C@@H](CF)NC(=O)C(Cl)Cl)cc1 [FLO, florfenicol] | 2.5 (≈ 6.98 µM) | 320 (≈ 893 µM) | 267 (≈ 744 µM) | 1.04 (≈ 2.9 µM) | 1.67 (≈ 4.66 µM) | 80 (≈ 223 µM) | 80 (≈ 223 µM) | 4.17 (≈ 11.6 µM) | 4 (≈ 11.2 µM) | 16 (≈ 44.7 µM) | 5.3 (≈ 14.8 µM) | – |
| NC[C@H]1O[C@H](O[C@H]2[C@H](O)[C@@H](O[C@H]3O[C@H](CO)[C@@H](O)[C@H](N)[C@H]3O)[C@H](N)C[C@@H]2N)[C@H](O)[C@@H](O)[C@@H]1O [KAN, kanamycin] | – | – | – | – | – | – | – | – | – | – | – | MIC against S. aureus B54 (S. aureus B54; [1]): 5.83 µg/mL (≈ 12 µM); MIC against E. coli W13 (E. coli W13; [2]): 320 µg/mL (≈ 660 µM); MIC against E. coli 2 (E. coli 2; [2]): >640 µg/mL; MIC against S. aureus B63 (S. aureus B63; [1]): 1.25 µg/mL (≈ 2.58 µM); MIC against S. aureus B9 (S. aureus B9; [1]): 186.67 µg/mL (≈ 385 µM); MIC against E. coli 17 (E. coli 17; [2]): 320 µg/mL (≈ 660 µM); MIC against E. coli IF4 (E. coli IF4; [2]): >640 µg/mL; MIC against S. aureus B5 (S. aureus B5; [1]): 40 µg/mL (≈ 82.6 µM); MIC against E. coli ATCC 25922 (E. coli ATCC 25922; [3]): 4 µg/mL (≈ 8.26 µM); MIC against S. aureus ATCC 25923 (S. aureus ATCC 25923; [3]): 4 µg/mL (≈ 8.26 µM) |
| CN(C)[C@@H]1C(O)=C(C(N)=O)C(=O)[C@@]2(O)C(O)=C3C(=O)c4c(O)cccc4[C@@](C)(O)[C@H]3C[C@@H]12 [TET, tetracycline] | 66.7 (≈ 150 µM) | 160 (≈ 360 µM) | 1 (≈ 2.25 µM) | 0.42 (≈ 0.945 µM) | 80 (≈ 180 µM) | 160 (≈ 360 µM) | 133 (≈ 300 µM) | 0.08 (≈ 0.18 µM) | 2 (≈ 4.5 µM) | 1 (≈ 2.25 µM) | 1.67 (≈ 3.76 µM) | – |
